In US20230037862A1, “SYNTHETIC AGONISTS OF TLR4 RECEPTOR” (UNIVERSITÀ DEGLO STUDI DI MILANO - BICOCCA, priority 2017, published 2023):
pKd: −log10 of the molar value. Entries after “also recorded” stand apart in the source; their conditions may differ.

Legend:
[1] = target: T1, purified human MD-2 receptor (Homo sapiens, UniProt Q9Y6Y9); experiment: Anti-MD-2 antibody (9B4) competition, antibody-sandwich ELISA; assay type: binding
T1 sequence (Q9Y6Y9 19-160): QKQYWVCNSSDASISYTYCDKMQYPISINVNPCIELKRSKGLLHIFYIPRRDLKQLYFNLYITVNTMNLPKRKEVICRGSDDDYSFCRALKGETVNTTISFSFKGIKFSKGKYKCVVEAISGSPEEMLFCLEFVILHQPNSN
Experimental: The direct binding of molecules FP11 and FP111 to MD-2 was analyzed by using a monoclonal antibody binding MD-2, but not LPS-bound MD-2 (Viriyakosol, S., et al., Characterization of monoclonal antibodies to human soluble MD-2 protein. Hybridoma (Larchmt), 2006. 25(6): p. 349-57).
Anti-MD-2 monoclonal antibody (9B4) specifically binds an epitope near the MD-2 hydrophobic pocket, which is available for 9B4 antibody binding only when the MD-2 hydrophobic pocket is empty. Compound FP11 is accountable for a decrease of 9B4 antibody binding to MD-2 equal to 95% at a concentration of 20 μM (FIG. 3E).
The method of antibody-sandwich ELISA for the detection of the binding of compounds to MD-2 was modified from a previous study.
(§1) A microtiter plate was coated overnight at 4° C. with 100 μL/well of 5 μg/mL of chicken polyclonal anti-MD-2 antibodies, diluted in 50 mM Na2CO3 buffer, pH 9.6, and blocked with 1% BSA in PBS. After washing, 1 μM MD-2 with tested compounds was added and incubated for 2 h.
Mouse anti-MD-2 mAb (0.1 μg/mL 9B4) and goat antimouse IgG conjugated with HRP (0.1 μg/mL) in PBS were added, followed by detection at 420 nm after the addition of 100 μL of ABTS (Sigma).
Chicken anti-MD-2 polyclonal antibodies were prepared against recombinant MD-2 by GenTel (Madison, Wis., USA), monoclonal mouse anti-MD-9B4 antibodies were from eBioscience (San Diego, Calif., USA), and secondary goat antimouse IgG conjugated with horseradish peroxidase was from Santa Cruz Biotechnology (Santa Cruz, Calif., USA).

[2] = target: T1, purified human MD-2 receptor; experiment: MD-2-bound fluorescent molecule (bis-ANS) displacement assay; assay type: binding; conditions: MD-2 200 nM, bis-ANS 200 nM
Experimental: therefore, TLR4 modulators that interact with MD-2 compete with compound bis-ANS, and are able to displace it from MD-2.
Fluorescence was measured on PerkinElmer fluorimeter LS 55 (PerkinElmer, UK) as previously described^[5].
All measurements were done at 20° C. in a 5×5 mm quartz glass cuvette (Hellma Suprasil, Müllheim, Germany). MD-2 protein (200 nM) and 1,1′-Bis(anilino)-4,4′-bis (naphtalene)-8,8′ disulfonate (bis-ANS, 200 nM) were mixed and incubated until reaching stable relative fluorescence units (RFUs) emitted at 420-550 nm under excitation at 385 nm.
Compounds, at different concentrations, were then added, followed by relative fluorescence unit (RFU) measurement at 420-550 nm.

[3] = target: T1, purified human MD-2 receptor; experiment: Biotinylated LPS displacement from MD-2 hydrophobic pocket (ELISA); assay type: binding
Experimental: The ability to displace LPS from MD-2 hydrophobic pocket was assessed by using an ELISA assay. Molecules FP11 and FP111 were added at increasing concentrations to MD-2 which had previously been incubated with biotinylated LPS.
The ability of the compounds to displace LPS from MD-2 hydrophobic pocket was determined by ELISA.
as §1, with “μg/mL” for “μg/mL of”, “biotin-labeled LPS” for “tested compounds”, “h. After washing, the compounds were added at different concentrations and incubated for 1.5 h.” for “h.”
After washing, 0.5 μg/mL HRP-conjugated streptavidin (Sigma) in PBS was added, followed by detection at 420 nm after the addition of 100 μL of ABTS (Sigma). Chicken anti-MD-2 polyclonal antibodies were prepared against recombinant MD-2 by GenTel (Madison, Wis., USA),

HEK-Blue™ hTLR4 cells = experiment: MTT cell viability assay; assay type: cell-based; conditions: 25 and 50 μM, 16-18 hours
Experimental: HEK-Blue™ hTLR4 cells were treated with the higher concentrations used in the preceding assays and incubated for 16-18 hours. Results were normalized to PBS addition and are expressed as mean of percentage ±ES. of at least three independent experiments.
Finally, compound FP11 cytotoxicity was assessed by MTT (3-(4,5-dimethylthiazol-2-yl)-2,5-diphenyltetrazolium bromide) viability assay. HEK-Blue™ hTLR4 cells were treated with the highest compound concentrations used in the preceding assay (25 and 50 μM).
HEK-Blue™ hTLR4 cells were grown in DMEM supplemented with 10% FBS, 2 mM glutamine and antibiotics.
Cells were seeded in 100 μL of DMEM without Phenol Red at a density of 4×10^4 cells per well and incubated overnight (37° C., 5% CO2 , 95% humidity).
Cells were treated with the higher dose of compound used in the previous experiments and incubated overnight. MTT solution (5 mg/mL in PBS) was added to each well, and after 3 h incubation, 0.1 N HCl in 2-propanol solution was used to dissolve formazan crystals.
Formazan concentration was determined by measuring the absorbance at 570 nm.
The results were normalized with untreated control (PBS) and expressed as the mean of percentage ±SEM of three independent experiments.

[4] = target: T1, purified human MD-2 receptor; experiment: Surface plasmon resonance binding to MD-2
Experimental: Surface plasmon resonance (SPR) experiments enable the study of direct interactions between the molecules to be characterized and MD-2.
The binding affinity of the compounds to recombinant MD-2 was determined using a Biacore X100 with an NTA sensor chip (Biacore, GE Healthcare, Uppsala, Sweden). Briefly, 0.5 μM MD-2 (in 50 mM TRIS, 150 mM NaCl, 0.5% Tween 20, pH 7.5) was immobilized onto the sensor chip previously activated with 1 min pulse of 10 mM NiSO4. The first flow cell was used as a reference surface to control nonspecific binding.
Both flow cells were incubated with the analyte (in PBS, 5% DMSO, 5% EtOH, pH 7.5) at a flow rate of 10 μL/min at 25° C. at increasing concentrations. The data were analyzed with Biacore Evaluation software. KD values were calculated by global fitting of the equilibrium binding responses from various concentrations of analytes using a 1:1 Langmuir binding model.

- decrease of 9B4 antibody binding to MD-2 ([1]; 20 μM): 95%
- displacement of biotinylated LPS from MD-2 ([3]; 160 μM): 55%
- pKd ([4]; SPR, 1:1 Langmuir binding model, 25° C.): 5.19
Compound: CCCCCCCCCCCCCC(=O)NC1C(OC(=O)CCCCCCCCCCCCC)[C@H](OC(=O)CCCCCCCCCCCCC)C(CO)O[C@H]1OP(=O)(O)O (stereo partly drawn) [FP11, 1-O-Phosphoryl-2-deoxy-4-O-tetradecanoyl 3-O-tetradecanoyl-2-tetradecanoylamino-α-D-glucopiranoside]
- prevention of monoclonal antibody 9B4 binding to MD-2 ([1]; up to 20 μM): prevents the binding of monoclonal antibody to MD-2 in a dose-dependent manner
- decrease of bis-ANS fluorescence / inhibition of bis-ANS binding to MD-2 [2]: concentration-dependent decrease of compound bis-ANS fluorescence; also recorded: inhibits the binding of bis-ANS to MD-2 in a dose-dependent manner
- ability to displace biotinylated LPS from MD-2 hydrophobic pocket ([3]; increasing concentrations, highest 160 μM): displaces biotinylated LPS from MD-2 hydrophobic pocket in a dose-dependent manner
- cytotoxicity (MTT viability) (HEK-Blue™ hTLR4 cells): not toxic at the concentrations assayed
- direct binding to MD-2 (SPR) [4]: directly binds the MD-2 hydrophobic pocket
